Data reported in the supplement of paper PMC13380429.

Key:
Conditions in all cases: 72 h
Calu-3 [1] = assay: relative viability EC50 (midpoint between 100% and the lowest measured viability); higher = less toxic
HepG2 [2] = assay: cell viability relative to DMSO; higher = less toxic
Caco-2 [3] = assay: as above
U2OS [4] = assay: as above
Calu-3 [5] = assay: as above
Vero E6 [6] = assay: as above
HepG2 [7] = assay: drug sensitivity score (DSS) for viability; higher = more toxic; extreme values may be limits of the assay
Caco-2 [8] = assay: as above
U2OS [9] = assay: as above
Calu-3 [10] = assay: as above
Vero E6 [11] = assay: as above
HepG2 [12] = assay: relative viability EC50 (midpoint between 100% and the lowest measured viability); higher = less toxic
U2OS [13] = assay: as above
Vero E6 [14] = assay: as above

| SMILES | relative viability EC50 (Calu-3 [1]) [nM] | cell viability (HepG2 [2]; 1 nM) [%] | cell viability (HepG2 [2]; 10 nM) [%] | cell viability (HepG2 [2]; 100 nM) [%] | cell viability (HepG2 [2]; 1000 nM) [%] | cell viability (HepG2 [2]; 10000 nM) [%] | cell viability (Caco-2 [3]; 1 nM) [%] | cell viability (Caco-2 [3]; 10 nM) [%] | cell viability (Caco-2 [3]; 100 nM) [%] | cell viability (Caco-2 [3]; 1000 nM) [%] | cell viability (Caco-2 [3]; 10000 nM) [%] | cell viability (U2OS [4]; 1 nM) [%] | cell viability (U2OS [4]; 10 nM) [%] | cell viability (U2OS [4]; 100 nM) [%] | cell viability (U2OS [4]; 1000 nM) [%] | cell viability (U2OS [4]; 10000 nM) [%] | cell viability (Calu-3 [5]; 1 nM) [%] | cell viability (Calu-3 [5]; 10 nM) [%] | cell viability (Calu-3 [5]; 100 nM) [%] | cell viability (Calu-3 [5]; 1000 nM) [%] | cell viability (Calu-3 [5]; 10000 nM) [%] | cell viability (Vero E6 [6]; 1 nM) [%] | cell viability (Vero E6 [6]; 10 nM) [%] | cell viability (Vero E6 [6]; 100 nM) [%] | cell viability (Vero E6 [6]; 1000 nM) [%] | cell viability (Vero E6 [6]; 10000 nM) [%] | drug sensitivity score (HepG2 [7]) | drug sensitivity score (Caco-2 [8]) | drug sensitivity score (U2OS [9]) | drug sensitivity score (Calu-3 [10]) | drug sensitivity score (Vero E6 [11]) | relative viability EC50 (HepG2 [12]) [nM] | relative viability EC50 (U2OS [13]) [nM] | relative viability EC50 (Vero E6 [14]) [nM] |
| --- | --- | --- | --- | --- | --- | --- | --- | --- | --- | --- | --- | --- | --- | --- | --- | --- | --- | --- | --- | --- | --- | --- | --- | --- | --- | --- | --- | --- | --- | --- | --- | --- | --- | --- |
| CN1CCN(c2ccc(Nc3ncc4cc(C#N)c(=O)n(C5CCCC5)c4n3)cc2)CC1 | > 10000 | 99.8 | 99.7 | 102 | 88.8 | 52.9 | 98 | 93.9 | 101 | 92.3 | 74.9 | 100 | 98 | 102 | 98.3 | 70 | 105 | 103 | 98.9 | 87.9 | 111 | 105 | 107 | 107 | 99.1 | 58.1 | 4.2 | 2 | 1.5 | 0 | 2.2 |  |  |  |
| FC(F)(F)c1cc(NC(=S)Nc2ccc(Br)cc2-c2nnn[nH]2)cc(C(F)(F)F)c1 | > 10000 | 99.3 | 92.7 | 98.7 | 90.4 | 85.6 | 96.6 | 106 | 95.3 | 88.7 | 57.9 | 99.9 | 104 | 97.7 | 97.6 | 97.5 | 98.8 | 102 | 101 | 103 | 99.3 | 95.8 | 102 | 93.3 | 102 | 83 | 0.2 | 3.7 | 0 | 0 | 0.3 | > 10000 | > 10000 | > 10000 |
| O=C(c1cn(Cc2cncn2Cc2ccc(Br)cc2)cc1-c1cccc2ccccc12)N1CCOCC1 |  | 107 | 90.6 | 98.3 | 57.1 | 16.3 | 99.1 | 96.1 | 94.4 | 78.1 | 63.5 | 97.3 | 99.4 | 90.5 | 80.3 | 39.9 | 104 | 96.7 | 98.6 | 68.1 | 72.1 | 99.8 | 97.7 | 95.4 | 88.1 | 64.5 | 9.8 | 4.3 | 5.5 | 5.6 | 2.9 | 972 | 1490 |  |
| N#C/C(=C\c1ccc(O)c(O)c1)C(=O)NCCCc1ccccc1 [AG-555] | > 10000 | 95.5 | 89.9 | 95.8 | 95.4 | 74.7 | 96.7 | 100 | 113 | 84.1 | 68.1 | 99 | 99.5 | 103 | 99.1 | 88.7 | 112 | 95.2 | 101 | 105 | 88.4 | 102 | 102 | 103 | 103 | 79.7 | 1.7 | 3.4 | 0 | 0 | 0.5 |  | > 10000 | > 10000 |
| c1cc(Nc2cc(C3CC3)n[nH]2)nc(Nc2ccc3[nH]cnc3c2)n1 [APY-29] | 337 | 96.4 | 94.2 | 93.1 | 14.2 | 5.2 | 88.9 | 101 | 94.7 | 94.8 | 72.5 | 95.2 | 102 | 100 | 55.4 | 5.4 | 98.1 | 100 | 102 | 37.8 | 66.9 | 101 | 94.1 | 93.5 | 86.9 | 13.8 | 16.6 | 1.9 | 10.9 | 11.2 | 7 | 339 | 1050 | 1970 |
| Clc1ccc(C2(c3ccc(-c4cn[nH]c4)cc3)CCNCC2)cc1 [AT7867] | > 10000 | 102 | 101 | 97.6 | 84.9 | 54.2 | 103 | 93.3 | 105 | 98.2 | 73.9 | 103 | 95.1 | 94.9 | 90.3 | 34.8 | 99.7 | 98.7 | 110 | 132 | 79.5 | 100 | 97 | 97.5 | 84.9 | 39.8 | 4.4 | 1.3 | 5.2 | 0.2 | 5.6 |  | 2000 | 1550 |
| CC(C)(C)c1ccc(NC(=O)N2CCN(c3ncccc3Cl)CC2)cc1 [BCTC] |  | 99.3 | 92.7 | 96.7 | 102 | 93.3 | 88.8 | 99.6 | 92.8 | 89.9 | 62.2 | 99.3 | 106 | 97.4 | 101 | 95 | 98.1 | 101 | 99.5 | 102 | 71.2 | 99 | 101 | 100 | 94.4 | 86.1 | 0 | 3 | 0 | 1.1 | 0.5 | > 10000 | > 10000 | > 10000 |
| CC(C)CCN1c2nc(Nc3cc(F)c(O)c(F)c3)ncc2N(C)C(=O)[C@@H]1C [BI-D1870] |  | 105 | 92.8 | 102 | 97.6 | 58.9 | 95.1 | 102 | 97.5 | 96.6 | 71.1 | 102 | 103 | 99 | 98.7 | 71.4 | 96 | 107 | 90.2 | 83.7 | 63.1 | 105 | 98.7 | 96.5 | 86.2 | 30.9 | 2.4 | 1.8 | 1.4 | 3.5 | 6.1 |  |  | 1740 |
| Cc1cc(C(=O)Nc2nc3cccc(Cl)c3n2[C@@H]2CCCCN(C(=O)/C=C/CN(C)C)C2)ccn1 [EGF816] | 512 | 107 | 100 | 96 | 94.5 | 32.1 | 95.5 | 94.3 | 98.1 | 93.7 | 72.3 | 101 | 98.9 | 99.3 | 98.4 | 77.3 | 102 | 95.9 | 86.9 | 51.6 | 24.6 | 104 | 106 | 102 | 82.1 | 36.8 | 4.6 | 2.1 | 1 | 10.8 | 6.2 | 2500 | > 10000 | 1450 |
| Nc1ccc2ncnc(NCCc3ccc(Oc4ccccc4)cc3)c2c1 [EVP4593] | > 10000 | 109 | 109 | 78.1 | 20.2 | 19.4 | 104 | 96.9 | 88 | 78.4 | 74.5 | 103 | 96.3 | 94.7 | 67.4 | 64.5 | 106 | 98.9 | 97.7 | 92.1 | 86.5 | 93.5 | 90.2 | 91.1 | 73.3 | 77 | 18 | 4.3 | 6.3 | 0.3 | 4.4 | 149 |  |  |
| NC(=S)N/N=C/c1coc2ccccc2c1=O.[Cl][Cu][Cl] [FPA-124] | > 10000 | 94.5 | 101 | 97.5 | 109 | 95.3 | 106 | 103 | 96.1 | 104 | 70.4 | 105 | 99.1 | 101 | 97.3 | 99.8 | 104 | 103 | 102 | 99 | 106 |  |  |  |  |  | 0 | 1 | 0 | 0 |  | > 10000 | > 10000 |  |
| CCCCOc1ccc(CC/C=C2\SC(=O)N(CCN)C2=O)cc1 [K145] | > 10000 | 107 | 102 | 95 | 95.4 | 82.7 | 97.9 | 106 | 95.1 | 91.2 | 73.9 | 89.3 | 97.1 | 91.4 | 93.1 | 83.1 | 92.1 | 108 | 87.1 | 101 | 92.5 | 108 | 103 | 101 | 104 | 92 | 0.6 | 1.7 | 0 | 0 | 0 | > 10000 | > 10000 | > 10000 |
| Cc1sc2c(c1C)C(c1ccc(Cl)cc1)=N[C@@H](CC(=O)Nc1ccc(O)cc1)c1nnc(C)n1-2 [OTX015] |  | 106 | 110 | 85.1 | 47.4 | 24.9 | 105 | 94.5 | 95.6 | 84.6 | 53.1 | 99.7 | 102 | 89.3 | 62.9 | 38.8 | 109 | 113 | 108 | 82.3 | 55.9 | 97.5 | 92.7 | 84.5 | 21.8 | 8 | 11.6 | 4.3 | 8.2 | 4.7 | 16.3 | 434 | 592 | 298 |
